Results reported in patent US6355799B1, “Substituted benzene compounds, process for their preparation, and herbicidal and defoliant compositions containing them” (ISK Americas Incorporated, priority 1997, dated 2002).

Key:
Assay type in all cases: in vivo
[1] = system: upland rice (Oryza sp., var. Tebonnet, RICE); assay: Post-emerge test, crop safety; settings: phytotoxicity rating 0-100 (0 no damage, 100 complete death), 14 days after application
How it was run: (§1)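 Each test used a mechanized track sprayer delivering 187 l/ha of acetone solution at 15–1000 g ai/ha. Post-emerge foliage at 2–3 leaves was treated with added 0.25% v/v non-ionic surfactant and bottom-watered only. Injury was assessed on day 14, where 100 means total kill.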

[2] = system: field corn (Zea mays L., var. Dekalb 535, CORN); assay: Post-emerge test, crop safety; settings: phytotoxicity rating 0-100 (0 no damage, 100 complete death), 14 days after application
How it was run: as §1

[3] = system: redroot pigweed (Amaranthus retroflexus, AMARE); assay: Pre-emerge test, greenhouse herbicide activity screening; settings: pre-emerge, rated 14 days after application, 0 = no damage, 100 = complete death
How it was run: (§2)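 Sandy loam pots; pre-emerge: sown 1 d pre-spray, surface-watered after, then bottom-watered. Post-emerge: sown 8–21 d before, 2–3 leaf stage, + 0.25% v/v NIS, bottom-watered. Acetone, 187 l/ha track spray, 15–1000 g ai/ha. 0–100 injury score, day 14.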

[4] = system: upland rice (Oryza sp., var. Tebonnet, RICE); assay: Pre-emerge test, crop safety; settings: pre-emerge, rated 14 days after application, 0 = no damage, 100 = complete death
How it was run: (§3)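 Visual ratings on a 0-100 scale (0 no damage, 100 all plants dead) were taken at 14 days after treatment. Rates of 15-1000 g ai/ha in acetone, 187 l/ha, were sprayed onto soil one day after planting (pre-emerge) or onto 2-3 leaf plants with 0.25% v/v surfactant (post-emerge).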

[5] = system: field corn (Zea mays L., var. Dekalb 535, CORN); assay: Pre-emerge test, crop safety; settings: pre-emerge, rated 14 days after application, 0 = no damage, 100 = complete death
How it was run: as §3

[6] = system: velvetleaf (Abutilon theophrasti, ABUTH); assay: Pre-emerge test, greenhouse herbicide activity screening; settings: pre-emerge, rated 14 days after application, 0 = no damage, 100 = complete death
How it was run: (§4)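 Plants grown in 10 cm pots of sandy loam mix received acetone-dissolved compounds through a moving flat-fan nozzle. Doses ranged from 15 to 1000 g ai/ha. Pre-emerge pots were seeded one day earlier, post-emerge pots 8–21 days earlier. Fourteen days on, each pot was graded 0–100 for damage.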

[7] = system: large crabgrass (Digitaria sanguinalis, DIGSA); assay: as above; settings: pre-emerge, rated 14 days after application, 0 = no damage, 100 = complete death
How it was run: as §4

[8] = system: common ragweed (Ambrosia artemisizfolia L., AMBEL); assay: as above; settings: pre-emerge, rated 14 days after application, 0 = no damage, 100 = complete death
How it was run: as §4

[9] = system: johnsongrass (Sorghum halepense, SORHA); assay: as above; settings: pre-emerge, rated 14 days after application, 0 = no damage, 100 = complete death
How it was run: as §4

[10] = system: sicklepod (Cassia obtusifolia, CASOB); assay: as above; settings: pre-emerge, rated 14 days after application, 0 = no damage, 100 = complete death
How it was run: as §4

[11] = system: green foxtail (Setaria viridis, SETVI); assay: as above; settings: pre-emerge, rated 14 days after application, 0 = no damage, 100 = complete death
How it was run: as §4

[12] = system: lambsquarters (Chenopodium album, CHEAL); assay: as above; settings: pre-emerge, rated 14 days after application, 0 = no damage, 100 = complete death
How it was run: as §4

[13] = system: ivyleaf morningglory (Ipomoea hederacea, IPOHE); assay: as above; settings: pre-emerge, rated 14 days after application, 0 = no damage, 100 = complete death
How it was run: as §4

[14] = system: barnyardgrass (Echinochloa crus-galli, ECHCG); assay: as above; settings: pre-emerge, rated 14 days after application, 0 = no damage, 100 = complete death
How it was run: as §4

[15] = system: velvetleaf (Abutilon theophrasti, ABUTH); assay: Post-emerge test, greenhouse herbicide activity screening; settings: phytotoxicity rating 0-100 (0 no damage, 100 complete death), 14 days after application
How it was run: as §2

[16] = system: large crabgrass (Digitaria sanguinalis, DIGSA); assay: as above; settings: phytotoxicity rating 0-100 (0 no damage, 100 complete death), 14 days after application
How it was run: as §2

[17] = system: redroot pigweed (Amaranthus retroflexus, AMARE); assay: as above; settings: phytotoxicity rating 0-100 (0 no damage, 100 complete death), 14 days after application
How it was run: as §2

[18] = system: common ragweed (Ambrosia artemisizfolia L., AMBEL); assay: as above; settings: phytotoxicity rating 0-100 (0 no damage, 100 complete death), 14 days after application
How it was run: as §2

[19] = system: sicklepod (Cassia obtusifolia, CASOB); assay: as above; settings: phytotoxicity rating 0-100 (0 no damage, 100 complete death), 14 days after application
How it was run: as §2

[20] = system: green foxtail (Setaria viridis, SETVI); assay: as above; settings: phytotoxicity rating 0-100 (0 no damage, 100 complete death), 14 days after application
How it was run: as §2

[21] = system: lambsquarters (Chenopodium album, CHEAL); assay: as above; settings: phytotoxicity rating 0-100 (0 no damage, 100 complete death), 14 days after application
How it was run: as §2

[22] = system: ivyleaf morningglory (Ipomoea hederacea, IPOHE); assay: as above; settings: phytotoxicity rating 0-100 (0 no damage, 100 complete death), 14 days after application
How it was run: as §2

[23] = system: barnyardgrass (Echinochloa crus-galli, ECHCG); assay: as above; settings: phytotoxicity rating 0-100 (0 no damage, 100 complete death), 14 days after application
How it was run: as §2

In the case of Cn1c(C(F)(F)F)cc(=O)n(-c2c(N)cc(OC(F)F)cc2F)c1=O [Compound 1-51], the “Post-emerge Herbicidal Activity RICE (crop damage)” value ([1]; 63 g ai/ha) was 10, the “Post-emerge Herbicidal Activity RICE (crop damage)” value ([1]; 250 g ai/ha) was 30 and the “Post-emerge Herbicidal Activity CORN (crop damage)” value ([2]; 63 g ai/ha) was 10. For the same compound, the “Post-emerge Herbicidal Activity CORN (crop damage)” value ([2]; 250 g ai/ha) was 20, the “Pre-emerge Herbicidal Activity AMARE (phytotoxicity rating, scale 0-100)” value ([3]; 63 g ai/ha) was 90 and the “Pre-emerge Herbicidal Activity AMARE (phytotoxicity rating, scale 0-100)” value ([3]; 250 g ai/ha) was 100. The “Pre-emerge crop damage RICE (phytotoxicity rating, scale 0-100)” value ([4]; 63 g ai/ha) was 10, the “Pre-emerge crop damage RICE (phytotoxicity rating, scale 0-100)” value ([4]; 250 g ai/ha) was 70 and the “Pre-emerge crop damage CORN (phytotoxicity rating, scale 0-100)” value ([5]; 63 g ai/ha) was 0. For the same compound, the “Pre-emerge crop damage CORN (phytotoxicity rating, scale 0-100)” value ([5]; 250 g ai/ha) was 70, the “Pre-emerge Herbicidal Activity ABUTH (phytotoxicity rating, scale 0-100)” value ([6]; 63 g ai/ha) was 90 and the “Pre-emerge Herbicidal Activity ABUTH (phytotoxicity rating, scale 0-100)” value ([6]; 250 g ai/ha) was 100. The “Pre-emerge Herbicidal Activity DIGSA (phytotoxicity rating, scale 0-100)” value ([7]; 63 g ai/ha) was 20, the “Pre-emerge Herbicidal Activity DIGSA (phytotoxicity rating, scale 0-100)” value ([7]; 250 g ai/ha) was 90 and the “Pre-emerge Herbicidal Activity AMBEL (phytotoxicity rating, scale 0-100)” value ([8]; 63 g ai/ha) was 30. The “Pre-emerge Herbicidal Activity AMBEL (phytotoxicity rating, scale 0-100)” value ([8]; 250 g ai/ha) was 80, the “Pre-emerge Herbicidal Activity SORHA (phytotoxicity rating, scale 0-100)” value ([9]; 63 g ai/ha) was 10 and the “Pre-emerge Herbicidal Activity SORHA (phytotoxicity rating, scale 0-100)” value ([9]; 250 g ai/ha) was 60. For the same compound, the “Pre-emerge Herbicidal Activity CASOB (phytotoxicity rating, scale 0-100)” value ([10]; 63 g ai/ha) was 0, the “Pre-emerge Herbicidal Activity CASOB (phytotoxicity rating, scale 0-100)” value ([10]; 250 g ai/ha) was 30 and the “Pre-emerge Herbicidal Activity SETVI (phytotoxicity rating, scale 0-100)” value ([11]; 63 g ai/ha) was 30. For the same compound, the “Pre-emerge Herbicidal Activity SETVI (phytotoxicity rating, scale 0-100)” value ([11]; 250 g ai/ha) was 90, the “Pre-emerge Herbicidal Activity CHEAL (phytotoxicity rating, scale 0-100)” value ([12]; 63 g ai/ha) was 90 and the “Pre-emerge Herbicidal Activity CHEAL (phytotoxicity rating, scale 0-100)” value ([12]; 250 g ai/ha) was 100. For the same compound, the “Pre-emerge Herbicidal Activity IPOHE (phytotoxicity rating, scale 0-100)” value ([13]; 63 g ai/ha) was 50, the “Pre-emerge Herbicidal Activity IPOHE (phytotoxicity rating, scale 0-100)” value ([13]; 250 g ai/ha) was 80 and the “Pre-emerge Herbicidal Activity ECHCG (phytotoxicity rating, scale 0-100)” value ([14]; 63 g ai/ha) was 0. For the same compound, the “Pre-emerge Herbicidal Activity ECHCG (phytotoxicity rating, scale 0-100)” value ([14]; 250 g ai/ha) was 50, the “Post-emerge Herbicidal Activity ABUTH” value ([15]; 63 g ai/ha) was 60 and the “Post-emerge Herbicidal Activity ABUTH” value ([15]; 250 g ai/ha) was 80. The “Post-emerge Herbicidal Activity DIGSA” value ([16]; 63 g ai/ha) was 10, the “Post-emerge Herbicidal Activity DIGSA” value ([16]; 250 g ai/ha) was 20 and the “Post-emerge Herbicidal Activity AMARE” value ([17]; 63 g ai/ha) was 70. For the same compound, the “Post-emerge Herbicidal Activity AMARE” value ([17]; 250 g ai/ha) was 70, the “Post-emerge Herbicidal Activity AMBEL” value ([18]; 63 g ai/ha) was 70 and the “Post-emerge Herbicidal Activity AMBEL” value ([18]; 250 g ai/ha) was 90. The “Post-emerge Herbicidal Activity CASOB” value ([19]; 63 g ai/ha) was 40, the “Post-emerge Herbicidal Activity CASOB” value ([19]; 250 g ai/ha) was 60 and the “Post-emerge Herbicidal Activity SETVI” value ([20]; 63 g ai/ha) was 0. For the same compound, the “Post-emerge Herbicidal Activity SETVI” value ([20]; 250 g ai/ha) was 30, the “Post-emerge Herbicidal Activity CHEAL” value ([21]; 63 g ai/ha) was 30 and the “Post-emerge Herbicidal Activity CHEAL” value ([21]; 250 g ai/ha) was 95. The “Post-emerge Herbicidal Activity IPOHE” value ([22]; 63 g ai/ha) was 40, the “Post-emerge Herbicidal Activity IPOHE” value ([22]; 250 g ai/ha) was 95 and the “Post-emerge Herbicidal Activity ECHCG” value ([23]; 63 g ai/ha) was 0. The “Post-emerge Herbicidal Activity ECHCG” value ([23]; 250 g ai/ha) was 10.
